Test results from publication PMC3895464 (Bioorganic & medicinal chemistry, 2013).

Assays:
[1] = tested on: HT29, HCA-7 and Apc10.1 cells; experiment: Cell growth assays, IC50 ranges over the three cell lines; type: cell-based; conditions: read-out: IC50 values (tumor cell survival)
[2] = tested on: COX-2 and 5-LOX expression in HT29 cells; experiment: COX-2 and 5-LOX expression in HT29 cells; type: cell-based, human; conditions: Figure 2B
[3] = tested on: pre-neoplastic Apc10.1 cells; experiment: MTT assay on pre-neoplastic Apc10.1 cells; type: cell-based; conditions: Apc10.1, 24 h
[4] = tested on: HT29 cells; experiment: Cell proliferation assay; type: cell-based; conditions: Homo sapiens, HT-29, read-out: IC50 cell proliferation, HT29, Has2 −
[5] = tested on: HCA-7 cells; experiment: Cell proliferation assay; type: cell-based; conditions: Homo sapiens, HCA-7, read-out: IC50 cell proliferation, HCA-7, Has2 −
[6] = tested on: Apc10.1 cells; experiment: Cell proliferation assay; type: cell-based, mice; conditions: Mus musculus, read-out: IC50 cell proliferation, Apc10.1, Has2 −

Structure (SMILES) | IC50 [1] | COX-2 and 5-LOX levels [2] | cytotoxic activity (MTT) [3] | IC50 [4] | IC50 [5] | IC50 [6]
CC(C)(C)C1=CC(=NNC(=O)c2ccccc2)C=C(C(C)(C)C)C1=O [BQBH, N’- (3,5-di-tert-butyl-4-oxocyclohexa-2,5-dienylidene) benzohydrazide] | 12 to 20 µM | substantial inhibition |  |  |  | 
CC(C)(C)C1=CC(=NNC(=O)c2ccncc2)C=C(C(C)(C)C)C1=O [BQIH, N’- (3,5-di-tert-butyl-4-oxocyclohexa-2,5-dienylidene) isonicotinohydrazide] | 12 to 20 µM | substantial inhibition |  |  |  | 
CC(C)(C)C1=CC(=NNC(=O)c2cccnc2)C=C(C(C)(C)C)C1=O [BQNH, N’- (3,5-di-tert-butyl-4-oxocyclohexa-2,5-dienylidene) nicotinohydrazide] | 6.5 to 11 µM | substantial inhibition | reasonable cytotoxic activity |  |  | 
Cc1ccc(-c2cc(C(F)(F)F)nn2-c2ccc(S(N)(=O)=O)cc2)cc1 [Celecoxib, reference compound] | 2 to 4.2 µM |  |  |  |  | 
CC1(C)Cc2c(-c3ccccc3)c(-c3ccc(Cl)cc3)c(CC(=O)O)n2C1 [Licofelone, [6-(4-chlorophenyl)-2,2-dimethyl-7-phenyl-2,3-dihydro-1H-pyrrolizin-5-yl]acetic acid] | 45 to 75 µM | substantial inhibition |  | 75 ± 8.3 µM | 48 ± 5.2 µM | 45 ± 7.2 µM
